Tests used:
PI3K alpha = molecular target: T1, PI3K alpha (Homo sapiens, UniProt P42336); test: PI3K alpha kinase assay (Kinase-Glo luminescence); format: biochemical
T1 construct: p85(iSH2) fusion partner (see partner chain) (N); His tag (C); made in house; host or cells: baculovirus; Tn5 (Trichoplusia ni) or TiniPro insect cells
Summary of the method: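 PI3Kα construct EMV B1075 (10 nM final) was preincubated with 10 μg/mL phosphatidylinositol in 10 mM Tris-HCl pH 7.5, 3 mM MgCl2, 50 mM NaCl, 0.05% CHAPS, 1 mM DTT. Reaction started with 1 μM ATP, 60 min at room temperature; remaining ATP measured by Kinase-Glo luminescence. IC50 from 4-parameter logistic fit of 8-point titrations.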

PI3K beta = molecular target: T2, PI3K beta (Homo sapiens, UniProt P42338); test: PI3K beta kinase assay (Kinase-Glo luminescence); format: biochemical
T2 construct: for the full-length p110-b subunit are generated and fused by overlapping PCR; p85(iSH2) fusion partner (see partner chain) (N); His tag (C); made in house; host or cells: baculovirus; Tn5 (Trichoplusia ni) or TiniPro insect cells
T2 sequence (P42338 with tags, fused parts or gaps limits assumed): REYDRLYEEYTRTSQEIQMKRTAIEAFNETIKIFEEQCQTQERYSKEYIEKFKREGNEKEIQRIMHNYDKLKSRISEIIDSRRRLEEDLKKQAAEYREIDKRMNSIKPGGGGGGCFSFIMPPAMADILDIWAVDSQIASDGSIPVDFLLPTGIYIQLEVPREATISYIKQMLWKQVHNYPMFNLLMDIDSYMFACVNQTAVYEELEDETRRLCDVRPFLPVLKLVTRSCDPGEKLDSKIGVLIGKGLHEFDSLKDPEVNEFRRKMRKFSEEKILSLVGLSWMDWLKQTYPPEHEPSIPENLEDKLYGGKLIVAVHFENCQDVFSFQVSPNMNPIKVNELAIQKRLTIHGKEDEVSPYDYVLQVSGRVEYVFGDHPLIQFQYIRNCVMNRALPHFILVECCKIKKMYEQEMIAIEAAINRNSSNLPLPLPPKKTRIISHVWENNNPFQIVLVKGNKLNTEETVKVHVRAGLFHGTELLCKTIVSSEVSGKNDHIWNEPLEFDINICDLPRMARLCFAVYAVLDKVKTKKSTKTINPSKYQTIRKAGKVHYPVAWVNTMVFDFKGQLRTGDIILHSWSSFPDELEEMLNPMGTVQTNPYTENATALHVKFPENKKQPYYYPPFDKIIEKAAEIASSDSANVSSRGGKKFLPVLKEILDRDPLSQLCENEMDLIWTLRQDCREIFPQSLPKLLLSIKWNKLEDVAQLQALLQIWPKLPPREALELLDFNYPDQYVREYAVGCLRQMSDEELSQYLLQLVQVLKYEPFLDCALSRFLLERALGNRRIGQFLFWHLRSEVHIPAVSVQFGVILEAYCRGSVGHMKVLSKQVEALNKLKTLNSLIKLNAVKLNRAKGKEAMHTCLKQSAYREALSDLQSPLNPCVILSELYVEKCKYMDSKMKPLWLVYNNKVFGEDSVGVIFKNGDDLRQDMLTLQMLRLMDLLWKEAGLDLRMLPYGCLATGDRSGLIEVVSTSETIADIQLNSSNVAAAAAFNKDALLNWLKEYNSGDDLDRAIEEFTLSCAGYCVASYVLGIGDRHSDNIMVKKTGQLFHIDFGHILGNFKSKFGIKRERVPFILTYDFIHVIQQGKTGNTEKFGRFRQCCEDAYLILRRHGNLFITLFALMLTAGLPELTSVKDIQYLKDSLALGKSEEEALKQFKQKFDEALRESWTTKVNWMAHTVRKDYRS
Summary of the method: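 IC50 is derived by four-parameter logistic curve fitting of Kinase-Glo luminescence, which measures ATP left after a 60 min room-temperature reaction. Conditions are 25 nM His-tagged p85(iSH2)-p110β, 1 μM ATP and 10 μg/mL bovine liver phosphatidylinositol.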

PI3K delta = molecular target: T3, PI3K delta (Homo sapiens, UniProt O00329); test: PI3K delta kinase assay (Kinase-Glo luminescence); format: biochemical
T3 construct: for the full-length p110-d subunit are generated and fused by overlapping PCR; p85(iSH2) fusion partner (see partner chain) (N); His tag (C); made in house; host or cells: baculovirus; Tn5 (Trichoplusia ni) or TiniPro insect cells
T3 sequence (O00329 with tags, fused parts or gaps limits assumed): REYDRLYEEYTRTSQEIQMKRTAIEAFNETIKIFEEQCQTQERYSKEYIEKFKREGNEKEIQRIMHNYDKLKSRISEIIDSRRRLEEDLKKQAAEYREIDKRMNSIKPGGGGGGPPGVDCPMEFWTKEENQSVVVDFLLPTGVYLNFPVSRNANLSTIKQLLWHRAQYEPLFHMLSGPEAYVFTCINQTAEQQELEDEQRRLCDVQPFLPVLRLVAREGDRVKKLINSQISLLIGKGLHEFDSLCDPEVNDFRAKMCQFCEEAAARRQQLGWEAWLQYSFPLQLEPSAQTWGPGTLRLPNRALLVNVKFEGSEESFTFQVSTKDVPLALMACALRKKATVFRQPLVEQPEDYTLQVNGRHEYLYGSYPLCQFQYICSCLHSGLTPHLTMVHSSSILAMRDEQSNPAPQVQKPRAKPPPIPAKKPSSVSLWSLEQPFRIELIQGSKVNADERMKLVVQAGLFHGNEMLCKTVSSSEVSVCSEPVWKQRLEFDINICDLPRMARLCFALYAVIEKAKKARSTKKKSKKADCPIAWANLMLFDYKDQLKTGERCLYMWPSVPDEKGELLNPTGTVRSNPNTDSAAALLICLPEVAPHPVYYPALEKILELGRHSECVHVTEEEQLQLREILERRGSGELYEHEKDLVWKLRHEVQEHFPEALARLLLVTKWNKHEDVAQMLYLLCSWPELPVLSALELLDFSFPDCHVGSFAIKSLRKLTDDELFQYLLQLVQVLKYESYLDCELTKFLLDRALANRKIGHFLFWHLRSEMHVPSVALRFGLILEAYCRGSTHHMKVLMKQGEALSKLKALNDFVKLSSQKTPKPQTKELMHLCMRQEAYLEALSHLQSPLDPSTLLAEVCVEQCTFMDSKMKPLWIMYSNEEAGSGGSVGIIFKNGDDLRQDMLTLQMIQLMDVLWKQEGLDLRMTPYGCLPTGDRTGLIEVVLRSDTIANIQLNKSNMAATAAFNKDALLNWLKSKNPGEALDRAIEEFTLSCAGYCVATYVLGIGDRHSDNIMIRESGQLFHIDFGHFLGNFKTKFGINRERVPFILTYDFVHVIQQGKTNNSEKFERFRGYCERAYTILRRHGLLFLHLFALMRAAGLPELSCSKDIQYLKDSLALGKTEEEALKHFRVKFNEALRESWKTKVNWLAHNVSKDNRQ
Summary of the method: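 Recombinant p85(iSH2)-Gly linker-p110δ full-length construct (BV1060, C-terminal His tag) was used at 10 nM with 10 μg/mL phosphatidylinositol and 1 μM ATP in 10 mM Tris-HCl pH 7.5, 3 mM MgCl2, 50 mM NaCl, 0.05% CHAPS, 1 mM DTT. After 60 min at room temperature, remaining ATP was measured by Kinase-Glo luminescence.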

[1] = system: PKB Ser473 phosphorylation in Rat1-myr-HA-p110 alpha cells; test: Reverse protein array assay, PKB Ser473 phosphorylation in Rat1-myr-p110 alpha cells; format: cell-based; conditions: 0.5 h, pAkt Ser473, 30 minutes compound incubation, read-out: p-PKB IC50
Summary of the method: (§1)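 Compound exposure lasted 30 min in Rat1 cells bearing membrane-targeted HA-p110 isoforms, using 8 serial concentrations. Arrayed lysates, each spotted at four dilutions, gave relative fluorescence signals for phospho-Ser473 PKB.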

[2] = system: PKB Ser473 phosphorylation in Rat1-myr-HA-p110 beta cells; test: Reverse protein array assay, PKB Ser473 phosphorylation in Rat1-myr-p110 beta cells; format: cell-based; conditions: 0.5 h, pAkt Ser473, 30 minutes incubation, read-out: p-PKB IC50
Summary of the method: as §1

[3] = system: PKB Ser473 phosphorylation in Rat1-myr-HA-p110 delta cells; test: Reverse protein array assay, PKB Ser473 phosphorylation in Rat1-myr-p110 delta cells; format: cell-based; conditions: read-out: p-PKB IC50
Summary of the method: as §1

T1 sequence (P42336 with tags, fused parts or gaps limits assumed): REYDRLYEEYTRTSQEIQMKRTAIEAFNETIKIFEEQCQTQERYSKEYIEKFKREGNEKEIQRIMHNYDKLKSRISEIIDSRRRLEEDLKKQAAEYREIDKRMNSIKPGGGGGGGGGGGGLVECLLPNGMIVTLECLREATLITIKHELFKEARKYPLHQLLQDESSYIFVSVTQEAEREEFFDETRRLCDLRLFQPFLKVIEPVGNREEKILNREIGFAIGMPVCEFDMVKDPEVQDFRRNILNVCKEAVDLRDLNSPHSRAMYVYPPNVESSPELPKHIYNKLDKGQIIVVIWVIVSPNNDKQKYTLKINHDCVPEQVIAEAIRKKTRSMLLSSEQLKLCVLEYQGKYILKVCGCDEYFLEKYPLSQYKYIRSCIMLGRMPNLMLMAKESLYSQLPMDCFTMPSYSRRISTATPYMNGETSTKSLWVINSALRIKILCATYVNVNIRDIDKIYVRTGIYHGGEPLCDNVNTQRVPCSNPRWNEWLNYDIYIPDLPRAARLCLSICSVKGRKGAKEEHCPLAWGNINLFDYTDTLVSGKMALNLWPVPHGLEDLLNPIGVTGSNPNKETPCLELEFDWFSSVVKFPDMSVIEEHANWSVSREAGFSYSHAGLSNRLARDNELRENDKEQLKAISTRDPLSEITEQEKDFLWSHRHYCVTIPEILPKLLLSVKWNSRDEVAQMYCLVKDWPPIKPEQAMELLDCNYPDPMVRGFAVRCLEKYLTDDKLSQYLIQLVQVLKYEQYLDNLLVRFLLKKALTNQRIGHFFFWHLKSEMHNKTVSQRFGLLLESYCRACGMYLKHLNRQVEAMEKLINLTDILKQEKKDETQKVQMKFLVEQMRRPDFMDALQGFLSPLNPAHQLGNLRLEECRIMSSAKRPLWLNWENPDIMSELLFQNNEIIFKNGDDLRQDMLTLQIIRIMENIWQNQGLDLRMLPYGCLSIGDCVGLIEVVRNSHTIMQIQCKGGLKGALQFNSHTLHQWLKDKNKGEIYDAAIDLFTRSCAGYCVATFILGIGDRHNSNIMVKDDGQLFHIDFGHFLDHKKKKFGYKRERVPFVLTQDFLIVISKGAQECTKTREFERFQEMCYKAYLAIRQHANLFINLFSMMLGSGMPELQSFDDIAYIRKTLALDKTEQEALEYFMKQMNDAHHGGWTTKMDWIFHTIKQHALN

COc1ccc(-c2ccc3ncc4c(c3c2)n(-c2c(C)nn(C)c2C)c(=O)n4C)cn1 [Example 2.4, 8-(6-Methoxy-pyridin-3-yl)-3-methyl-1-(1,3,5-trimethyl-1H-pyrazol-4-yl)-1,3-dihydro-imidazo[4,5-c]quinolin-2-one]
IC50 (PI3K alpha): 0.065 µM | IC50 (PI3K beta): 0.12 µM | IC50 (PI3K delta): 0.033 µM | IC50 [1]: 0.065 µM | IC50 [2]: 0.386 µM | IC50 [3]: 0.882 µM

CCOc1ccc(-c2ccc3ncc4c(c3c2)n(-c2cn(C)nc2C)c(=O)n4C)cn1 [Example 3.1, 1-(1,3-Dimethyl-1H-pyrazol-4-yl)-8-(6-ethoxy-pyridin-3-yl)-3-methyl-1,3-dihydro-imidazo[4,5-c]quinolin-2-one]
IC50 (PI3K alpha): 0.021 µM | IC50 (PI3K beta): 0.192 µM | IC50 (PI3K delta): 0.037 µM | IC50 [1]: 0.024 µM | IC50 [2]: 0.02 µM | IC50 [3]: 0.042 µM

CCOc1ccc(-c2ccc3ncc4c(c3c2)n(-c2cn(CC(=O)N3CCOCC3)nc2C)c(=O)n4C)cn1 [Example 3.10, 8-(6-Ethoxy-pyridin-3-yl)-3-methyl-1-[3-methyl-1-(2-morpholin-4-yl-2-oxo-ethyl)-1H-pyrazol-4-yl]-1,3-dihydro-imidazo[4,5-c]quinolin-2-one]
IC50 (PI3K alpha): 0.091 µM | IC50 (PI3K delta): 0.431 µM | IC50 [1]: 0.059 µM | IC50 [2]: 0.07 µM | IC50 [3]: 0.084 µM

CCOc1ccc(-c2ccc3ncc4c(c3c2)n(-c2c(C)nn(CC(=O)N(C)C)c2C)c(=O)n4C)cn1 [Example 3.12, 2-{4-[8-(6-Ethoxy-pyridin-3-yl)-3-methyl-2-oxo-2,3-dihydro-imidazo[4,5-c]quinolin-1-yl]-3,5-dimethyl-pyrazol-1-yl}-N,N-dimethyl-acetamide]
IC50 (PI3K alpha): 0.057 µM | IC50 (PI3K delta): 0.721 µM | IC50 [1]: 0.128 µM | IC50 [2]: 0.166 µM | IC50 [3]: 0.211 µM

CCn1cc(-n2c(=O)n(C)c3cnc4ccc(-c5ccc(N(C)C)nc5)cc4c32)c(C)n1 [Example 4.2, 8-(6-Dimethylamino-pyridin-3-yl)-1-(1-ethyl-3-methyl-1H-pyrazol-4-yl)-3-methyl-1,3-dihydro-imidazo[4,5-c]quinolin-2-one]
IC50 (PI3K alpha): 0.015 µM | IC50 (PI3K beta): 0.225 µM | IC50 (PI3K delta): 0.006 µM | IC50 [1]: 0.014 µM | IC50 [2]: 0.019 µM | IC50 [3]: 0.044 µM

Cc1nn(C(C)C)cc1-n1c(=O)n(C)c2cnc3ccc(-c4ccc(N5CCC5)nc4)cc3c21 [Example 5.2, 8-(6-Azetidin-1-yl-pyridin-3-yl)-1-(1-isopropyl-3-methyl-1H-pyrazol-4-yl)-3-methyl-1,3-dihydro-imidazo[4,5-c]quinolin-2-one]
IC50 (PI3K alpha): 0.034 µM | IC50 (PI3K delta): 0.053 µM | IC50 [1]: 0.014 µM | IC50 [2]: 0.022 µM | IC50 [3]: 0.027 µM

Cc1nn(CC(=O)N(C)C)cc1-n1c(=O)n(C)c2cnc3ccc(-c4ccc(-n5cccn5)cc4)cc3c21 [Example 51.2, N,N-Dimethyl-2-{3-methyl-4-[3-methyl-2-oxo-8-(4-pyrazol-1-yl-phenyl)-2,3-dihydro-imidazo[4,5-c]quinolin-1-yl]-pyrazol-1-yl}-acetamide]
IC50 (PI3K alpha): 0.008 µM | IC50 (PI3K delta): 0.453 µM | IC50 [1]: 0.015 µM | IC50 [2]: 0.006 µM | IC50 [3]: 0.022 µM

CCOc1cncc(-c2ccc3ncc4c(c3c2)n(-c2c(C)cnn2C)c(=O)n4C)c1 [Example 56.5, 1-(2,4-Dimethyl-2H-pyrazol-3-yl)-8-(5-ethoxy-pyridin-3-yl)-3-methyl-1,3-dihydro-imidazo[4,5-c]quinolin-2-one]
IC50 (PI3K alpha): 0.155 µM | IC50 (PI3K beta): 0.193 µM | IC50 (PI3K delta): 0.196 µM | IC50 [1]: 0.846 µM

COCCn1c(=O)n(C)c2ncc(-c3ccc4ncc5c(c4c3)n(-c3cn(C)nc3C)c(=O)n5C)cc21 [Example 69, 1-(1,3-Dimethyl-1H-pyrazol-4-yl)-8-[1-(2-methoxy-ethyl)-3-methyl-2-oxo-2,3-dihydro-1H-imidazo[4,5-b]pyridin-6-yl]-3-methyl-1,3-dihydro-imidazo[4,5-c]quinolin-2-one]
IC50 (PI3K alpha): 0.039 µM | IC50 (PI3K beta): 0.129 µM | IC50 (PI3K delta): 0.036 µM | IC50 [1]: 0.755 µM | IC50 [3]: 0.81 µM

Cc1nn(C)cc1-n1c(=O)n(C)c2cnc3ccc(-c4cnc5c(c4)nc(N(C)C)n5C)cc3c21 [Example 70, 8-(2-Dimethylamino-3-methyl-3H-imidazo[4,5-b]pyridin-6-yl)-1-(1,3-dimethyl-1H-pyrazol-4-yl)-3-methyl-1,3-dihydro-imidazo[4,5-c]quinolin-2-one]
IC50 (PI3K alpha): 0.375 µM | IC50 (PI3K delta): 0.163 µM | IC50 [2]: 0.176 µM | IC50 [3]: 0.275 µM

CCOc1ccc(-c2ccc3ncc4c(c3c2)n(-c2cn(CC(=O)N(C)CC)nc2C)c(=O)n4C)cn1 [Example 136, 2-{4-[8-(6-Ethoxy-pyridin-3-yl)-3-methyl-2-oxo-2,3-dihydro-imidazo[4,5-c]quinolin-1-yl]-3-methyl-pyrazol-1-yl}-N-ethyl-N-methyl-acetamide]
IC50 (PI3K alpha): 0.025 µM | IC50 (PI3K delta): 0.214 µM | IC50 [1]: 0.011 µM | IC50 [2]: 0.016 µM | IC50 [3]: 0.066 µM

COCCN(C)C(=O)Cn1cc(-n2c(=O)n(C)c3cnc4ccc(-c5ccccc5)cc4c32)c(C)n1 [Example 137, N-(2-Methoxy-ethyl)-N-methyl-2-[3-methyl-4-(3-methyl-2-oxo-8-phenyl-2,3-dihydro-imidazo[4,5-c]quinolin-1-yl)-pyrazol-1-yl]-acetamide]
IC50 (PI3K alpha): 0.161 µM | IC50 (PI3K delta): 0.922 µM | IC50 [1]: 0.324 µM | IC50 [2]: 0.428 µM | IC50 [3]: 0.595 µM

CCN(CC)C(=O)Cn1cc(-n2c(=O)n(C)c3cnc4ccc(-c5ccc(C)nc5)cc4c32)c(C)n1 [Example 139, N,N-Diethyl-2-{3-methyl-4-[3-methyl-8-(6-methyl-pyridin-3-yl)-2-oxo-2,3-dihydro-imidazo[4,5-c]quinolin-1-yl]-pyrazol-1-yl}-acetamide]
IC50 (PI3K alpha): 0.017 µM | IC50 (PI3K delta): 0.069 µM | IC50 [1]: 0.052 µM | IC50 [2]: 0.039 µM | IC50 [3]: 0.07 µM

CCc1ncc(-c2ccc3ncc4c(c3c2)n(-c2cn(C)nc2C)c(=O)n4C)cc1NC(C)C [Example 162, 1-(1,3-Dimethyl-1H-pyrazol-4-yl)-8-(6-ethyl-5-isopropylamino-pyridin-3-yl)-3-methyl-1,3-dihydro-imidazo[4,5-c]quinolin-2-one]
IC50 (PI3K alpha): 0.008 µM | IC50 (PI3K beta): 0.02 µM | IC50 (PI3K delta): 0.01 µM | IC50 [1]: < 0.005 µM | IC50 [2]: < 0.005 µM

Cc1nn(CCO)cc1-n1c(=O)n(C)c2cnc3ccc(-c4cncc(N5CCOCC5)c4)cc3c21 [Example 175.3, 1-[1-(2-Hydroxy-ethyl)-3-methyl-1H-pyrazol-4-yl]-3-methyl-8-(5-morpholin-4-yl-pyridin-3-yl)-1,3-dihydro-imidazo[4,5-c]quinolin-2-one]
IC50 (PI3K alpha): 0.044 µM | IC50 (PI3K beta): 0.559 µM | IC50 (PI3K delta): 0.126 µM | IC50 [1]: 0.344 µM | IC50 [2]: 0.692 µM

Cc1nn(C)cc1-n1c(=O)n(C)c2cnc3ccc(-c4ccc(N5CC[C@@H](O)C5)nc4)cc3c21 [Example 212.1, 1-(1,3-Dimethyl-1H-pyrazol-4-yl)-8-[6-((R)-3-hydroxy-pyrrolidin-1-yl)-pyridin-3-yl]-3-methyl-1,3-dihydro-imidazo[4,5-c]quinolin-2-one]
IC50 (PI3K alpha): 0.053 µM | IC50 (PI3K delta): 0.111 µM | IC50 [1]: 0.135 µM | IC50 [2]: 0.199 µM | IC50 [3]: 0.768 µM

Reference: patent US20140005163A1 (NOVARTIS AG, priority 2010, published 2014)
